From patent publication EP2366394A1, “Characterization and validation of inhibitors and ligands of dipeptidyl aminopeptidase IV (DP IV)” (IMTM GmbH, priority 2010, dated 2011)
Like-named read-outs stand apart in the source and are kept apart here.

Columns and labels:
[1] = test system: T lymphocytes; assay: Inhibition of proliferation (DNA synthesis, tritium thymidine incorporation) of PHA-stimulated T lymphocytes; type: cell-based; conditions: Homo sapiens, T-lymphocyte, read-out: IC50(Tc) Measured DNA-Supp.
Experimental: Peripheral blood mononuclear cells (PBMC) from healthy human volunteers were freshly isolated by density gradient centrifugation. T lymphocytes (T cells, Tc) were isolated from PBMC fractions via nylon wool adherence. Cells were cultured in standard cell culture media and stimulated by addition of 1 µg/ml Phytohemagglutinine for 48 hours in 96 well flat-bottom microtitre plates. […] DNA synthesis of proliferating T cells was determined by incorporation of radio labelled tritium thymidine and subsequent radio detection. […] The IC50 value of proliferation suppression was assessed by graphical evaluation.

[2] = target: purified, recombinant human DPIV (Homo sapiens, UniProt P27487); assay: Inhibition of the enzymatic activity of DPIV, fluorogenic substrate (Ala-Pro)2-R110; type: biochemical; conditions: substrate 0.5 µM, pH 7.5; highest test concentration 25 µM; > 25: No inhibition
Experimental: The assay was performed in 0.05 M TRIS/HCl buffer, pH 7.5, supplemented with 0.05 % Triton® (v/v), 0.05 % BSA (w/v), 2 mM MgCl2.
The enzymatic activity of DPIV was assessed by the hydrolysis of the fluorogenic substrate Bis-(L-Alanyl-Prolyl)-Rhodamin-110 (Bis-Trifluoroacetate; abbreviation: (Ala-Pro)2-R110). The final substrate concentration was 0.5 µM.
The assay was performed in white microtitre plates for fluorescence measurements. The test items, substrate and enzyme, were diluted in assay buffer. […] For the calculation of IC50 values, at least 16 log2 dilutions of each test item were analyzed. As controls, the DPIV activity in the absence of test items as well as the spontaneous hydrolysis of the substrate was determined.

[3] = target: DP8/9; assay: Inhibition of the enzymatic activity of DPIV related enzymes DP8/9; type: biochemical; conditions: > 25: No inhibition
Excerpt: Measurement of the enzymatic activity of DPIV and related enzymes

[4] = suppression of DNA synthesis of T cells, 1 µg/ml Phytohemagglutinine, 48 hours, graphical evaluation

Chain of purified, recombinant human DPIV (P27487 whole entry): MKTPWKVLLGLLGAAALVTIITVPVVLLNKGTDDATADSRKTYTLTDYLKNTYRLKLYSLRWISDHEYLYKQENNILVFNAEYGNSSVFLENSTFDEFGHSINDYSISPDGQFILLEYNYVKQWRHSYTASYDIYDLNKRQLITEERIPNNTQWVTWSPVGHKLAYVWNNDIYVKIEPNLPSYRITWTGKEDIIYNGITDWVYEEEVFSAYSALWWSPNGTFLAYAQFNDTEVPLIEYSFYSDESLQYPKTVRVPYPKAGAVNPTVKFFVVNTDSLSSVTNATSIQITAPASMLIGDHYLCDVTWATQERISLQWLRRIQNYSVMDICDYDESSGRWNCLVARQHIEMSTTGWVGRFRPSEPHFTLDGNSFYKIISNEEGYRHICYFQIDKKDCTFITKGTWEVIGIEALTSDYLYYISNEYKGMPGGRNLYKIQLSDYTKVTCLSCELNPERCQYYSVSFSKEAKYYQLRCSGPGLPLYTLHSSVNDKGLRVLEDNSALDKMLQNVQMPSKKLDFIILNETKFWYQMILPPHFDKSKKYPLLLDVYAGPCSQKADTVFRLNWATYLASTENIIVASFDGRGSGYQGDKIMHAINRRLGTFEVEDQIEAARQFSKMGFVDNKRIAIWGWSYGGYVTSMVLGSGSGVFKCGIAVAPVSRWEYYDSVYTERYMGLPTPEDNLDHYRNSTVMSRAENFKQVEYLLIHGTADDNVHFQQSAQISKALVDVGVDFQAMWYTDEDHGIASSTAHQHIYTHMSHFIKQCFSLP

SMILES | IC50 ([1]; 48 h) [µM] | IC50 [2] [µM] | IC50 [1, 4] [µM] | IC50 [3] [µM]
N[C@@H](CC(=O)N1CCn2c(nnc2C(F)(F)F)C1)Cc1cc(F)ccc1F [No. 1, (1R)-1-(2,5-Difluorobenzyl)-3-oxo-3-[3-(trifluoromethyl)-5,6-dihydro[1,2,4]triazolo[4,3-a]pyrazine-7(8H)-yl]propylamine] | 200 |  |  | 
CC(C)C(Oc1ccc(CNC(=O)C2CCCN2C(=O)CC(N)Cc2cc(F)ccc2F)cc1)C(=O)O (stereo not shown) [No. 2, 2-[({[1-(3-Amino, 2-(2, 5)-difluorophenylbutanoyl)pyrrolidin-2-yl]carbonyl}amino)-p-phenoxy]-3-methyl butanoic acid] |  | 0.48 | 81 | > 25
CC[C@H](C)[C@H](N)C(=O)N1CCSC1 [No. 4, (1S,2S)-2-Methyl-1-(1,3-thiazolidine-3-ylcarbonyl) butyl amine] | 113 |  |  | 1.73
CC(C)(CNC(=O)CC(Cc1cc(F)ccc1F)NC(=O)OC(C)(C)C)CNC(=O)C(O)C(Cc1ccccc1)NC(=O)OC(C)(C)C (stereo not shown) [No. 6, 3-N-tert.-Butylcarbamato-5-phenyl-N-{3-[(3-amino-2-hydroxypropanoyl)-amino]-2,2-dimethylpropyl}-5-(2,5-difluorophenyl) pentane 3-amine] | 8 | > 25 |  | > 25
CCCCCC(=O)NC(CC(=O)NCC(C)(C)CNC(=O)C(O)C(Cc1ccccc1)NC(=O)CCCCC)Cc1cc(F)ccc1F (stereo not shown) [No. 7, 3-Amino-5-phenyl-N-{3-[(3-amino-1-oxohexyl-2-hydroxypropanoyl)amino-1-oxohexyl]-2,2-dimethylpropyl}-5-(2,5-difluorophenyl)pentane 3-N-tert.butyl carbamate] | 10 | > 25 |  | > 25
NC(CCCCNC(=O)c1ccc(S)nc1)C(=O)N1CCSC1 (stereo not shown) [No. 8, N-[5-Amino-6-oxo-6-(1,3-thiazolidine-3-yl)hexyl]-6-mercapto nicotinamide] | 90 | 0.09 |  | 0.001
NC(CC(=O)N1CCn2c(nnc2C(F)(F)F)C1)Cc1cc(F)c(F)cc1F (stereo not shown) [No. 10, 3-Oxo-1-(2,4,5-trifluorobenzyl)-3-[3-(trifluoromethyl)-5,6-dihydro-[1,2,4]triazolo[4,3-a]pyrazine-7(8H)-yl]propyl amine] |  |  | 148 | 15.3
NC(CC(=O)N1CCN(C(c2ccc(F)cc2)c2ccc(F)cc2)CC1)C(=O)N1Cc2ccccc2C1 (stereo not shown) [No. 13, 2-Amino-1-(1,3-dihydro-2H-isoindol-2-yl)-4-(4-bis(4-fluorophenyl)-methylpiperazine-1-yl) butane-1,4-dione] | 6 |  |  | 
NC(CNC(=O)c1cccc(NC(=O)C(O)C(N)Cc2ccc(-c3cccnc3)cc2)c1)Cc1cc(F)ccc1F (stereo not shown) [No. 15, 3-[(3-Amino-2-4-(4-(3-pyridinyl)-phenyl) hydroxybu-tanoyl)-amino]-N-(2-amino-5-(2,4-difluorophenyl)pentyl) ben-zamide] |  |  | 24 | 8.5
Cc1[nH]c2ccccc2c1C(c1cc(Cl)ccc1O)N1CCOCC1 (stereo not shown) [No. 16, 4-Chloro-2-[(2-methyl-1H-indol-3-yl)(morpholin-4-yl)methyl]-benzenolate] |  | > 25 | 3 | 
